From US11666562B2, “Ilaprazole for inhibiting the release of enveloped viruses from cells” (Northwestern University, priority 2020, dated 2023)
One block for each compound: values may come before it.

Tests used:
HSV-2 = assay: Release of HSV-2 from infected Vero cells, plaque assay; assay type: cell-based, Herpes simplex virus-2(A/B-G); conditions: for Anti-HSV-2 activity (release from Vero cells), in words: Table 2, 24 h
Method: (§1) We infected Vero cells with HSV-1 and HSV-2 for two hours at a multiplicity of infection (MOI in pfu\cell) of 0.1 to assay the antiviral activity of tenatoprazole. Following infection, cells were treated with different concentrations of tenatoprazole. After 24 or 48 h the media fractions were collected and released virus titers were determined by standard plaque assays (30). Tenatoprazole caused a 3-log drop of HSV-1 and 4-5 log drop of HSV-2 in released infectious virus from Vero cells at 24 hours after infection in a dose dependent manner (Table 1, shown in FIG. 5, columns 2 and 3) with calculated EC50's ranging from 48-80 μM. Total virus titer was also determined to differentiate between virus released into the media and infectious particles present in cell lysate. […] The concentrations of tenatoprazole that blocked virus release were nontoxic to Vero cells as determined by a 96® AQueous One Solution cell proliferation assay reagent (Table 1, shown in FIG. 5, column 7). Taken together, tenatoprazole inhibited levels of both released and infectious virus particles without affecting cell viability at effective concentrations.
To examine the effects of the compounds on the release of HSV-2 from Vero cells, we infected the cells with virus two hours prior to treatment with media containing different concentrations of compound. We incubated the cells for 24 or 48 hours and then collected the cell media fractions.
(§2) Herpesvirus infection of Vero cells. Vero cells (0.8×10^6 cells/well of a 6-well plate) were infected with HSV-1 or HSV-2 at a MOI of 0.1 pfu/cell in DMEM with 1% serum for two hours in the C02 incubator at 37° C. In one experiment looking at the effect of tenatoprazole on HSV-2 release from cells 24 and 48 h a MOI of 3 pfu/cell was used. The cell supernatants were aspirated and replaced with 1 ml (24 h) or 2 ml (48 h and 72 h) of DMEM with 1% serum with DMSO or different concentrations of drug (tenatoprazole, ilaprazole, or analogs) dissolved in DMSO. After 24 or 48 h incubation, the cell supernatant was collected and frozen at −80° C. Virus titer in the cell media fraction was determined by standard plaque assays using 10-fold serial dilutions of cell supernatants of Vero cells and incubated for 48 h after which cells were fixed and stained to count the plaques (22). For determination of total virus (extracellular+cytoplasmic), virus infected cells were incubated for 24 h with and without drug presence, then the plate of cells were subjected to 3 cycles of freeze/thawing (−80° C./37° C.) 30 min each prior to collecting the supernatant after centrifugation for measurement of total virus titer. Virus titer was measured by standard plaque assay as above.
(§3) Drug potency and cell toxicity. EC50 calculations were determined by using AAT Bioquest's EC50 calculator. Cell toxicity at different concentrations of drugs as indicated was determine using the Cell Proliferation Reagent WST-1 (Roche Diagnostics) or cellular 96® Aqueous One Reagent viability reagent according to manufacturer's instructions. For 293T cells, the concentration of DMSO was 0.2% or less and assays were carried out with DMEM with 10% serum. Cell toxicity experiments were repeated twice.

HSV-1 = assay: Release of HSV-1 from infected Vero cells, plaque assay; assay type: cell-based, Herpes simplex virus-1 (Kos strain); conditions: different concentrations, repeated 4 times
Method: as §1, §2, §3

HIV-1 = conditions: earlier reports (refs 5, 29); cited from earlier work
[1] = target: T1, Tsg101-UEV (Tsg101 amino acids 1-145) (Homo sapiens, UniProt Q99816); assay: Fluorescence thermal shift (FTS) assay, binding to Tsg101-UEV; conditions: FTS, Sypro-Orange, no DTT
T1 construct: The recombinant Tsg101 fragment (amino acids 1-145), prepared as described above in Materials and Methods; His6 (N); thrombin protease cleavage site (N); made in house; host or cells: E. coli ROSETTA 2 (DE3) pLysS
T1 sequence (Q99816 1-145): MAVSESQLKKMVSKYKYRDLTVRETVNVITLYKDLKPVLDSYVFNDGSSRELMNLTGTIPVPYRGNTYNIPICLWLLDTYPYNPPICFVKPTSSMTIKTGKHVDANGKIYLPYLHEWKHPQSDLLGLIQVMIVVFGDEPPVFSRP
Method: The fluorescence-based thermal shift assay is based on the observation that a protein unfolds upon heating, exposing the hydrophobic residues within its tertiary structure. The unfolding temperature (Tm) is determined by the protein's primary sequence and solution environment. The FTS assay uses a fluorescent dye sensitive to a hydrophobic environment to probe protein stability and its modulation by small molecule ligands. The dye has a low fluorescence quantum yield when in a polar environment. Once in contact with the hydrophobic core normally buried within a folded protein that has become exposed during the thermal unfolding (melting) process, the quantum yield of the dye increases, thus providing a reporting signal. Furthermore, a protein's stability can be affected by ligand binding, resulting in an increase or decrease in its melting temperature. FTS assay uses the Tm shift upon binding of a ligand to identify hit compounds for drug discovery.
Identification of prazole compounds that bind the UEV ubiquitin-binding domain of Tsg101. We screened chemical compounds using a fluorescence thermal shift (FTS) assay (27, 28) to identify small molecules that bind directly to a truncated form of Tsg101 (amino acids 1-145) which contains the Ubiquitin E2 variant (UEV) ubiquitin-binding domain (FIG. 1). The UEV, which contains the PT/SAP binding domain in addition to the ubiquitin-binding domain, provides chaperone functions to HIV-1 Gag that is independent of its interaction with the PS/TAP motif, and contains the prazole binding site (5). This truncated Tsg101, called Tsg101-UEV, was used because full-length Tsg101 has significant solubility issues in aqueous solution. Tsg101 is an adaptor protein and thus lacks a readily deployable functional assay, making FTS a tractable approach to identify interacting compounds. FTS monitors protein thermal denaturation using SYPRO-Orange, a dye which fluoresces when bound to hydrophobic surfaces, which allows monitoring of the changes in hydrophobic surface exposure during protein denaturation (27). Since ligand binding affects protein thermal stability, it can be detected through modulation of protein thermal denaturation (melting) as a shift in melting temperature (Tm). Tsg101-UEV has a well-defined melting curve suitable for FTS. We used the FTS assay to identify compounds that bind to Tsg101-UEV.
Purification of Tsg101 (1-145). N-terminally His6-tagged Tsg101 UEV domain (amino acids 1-145), called Tsg101-UEV, was encoded in a pET-28b vector (Novagen—EMD Millipore), which also included a thrombin protease cleavage site (His6-Thrombin Site-Tsg101, 1-145). Tsg101-UEV was grown in LB broth with Kanamycin (30 μg/ml) in ROSETTA 2 (DE3) pLysS E. coli competent cells (EMD Millipore) and induced with 1 mM IPTG at room temperature for 3 h. Bacteria were collected by centrifugation at 4,000 rpm for 10 min at […]. Bacteria were suspended in 50 ml binding buffer (20 mM Tris-HCl, pH 7.9, 0.5 M NaCl, 5 mM Imidazole) with 1 mM PMSF, 0.1% NP40, and a Protease Inhibitor Cocktail Tablet (Roche) and sonicated for 3.5 min on ice. The sonicate was spun at 9,000 rpm for 1 h at […] in a Sorvall centrifuge. The supernatant was collected and passed through a 1.5 ml Ni-NTA Agarose column. The column was washed with 20 mM Tris-HCl, pH 7.9, 0.5 M NaCl, 30 mM Imidazole wash buffer. […] Protein concentration was determined with a Nano Drop Spectrophotometer at […]. […]

SMILES: COCCCOc1ccnc(C[S+]([O-])c2nc3ccccc3[nH]2)c1C (stereo not shown) [rabeprazole]
- Anti-HSV-2 activity (release from Vero cells), in words (HSV-2): inactive

SMILES: NC(CO)C(=O)NNCc1ccc(O)c(O)c1O (stereo not shown) [benserazide (K21), benserazide]
- Effect on release of HSV-1 from VERO cells (HSV-1): did not appear to affect release of virus from cells

SMILES: COc1ccnc(C[S+]([O-])c2nc3ccc(OC(F)F)cc3[nH]2)c1OC (stereo not shown) [pantoprazole]
- Anti-HSV-2 activity (release from Vero cells), in words (HSV-2): inactive

SMILES: COc1ccc2nc([S@@+]([O-])Cc3ncc(C)c(OC)c3C)[nH]c2c1 [esomeprazole]
- Inhibition of release of infectious HIV-1 from 293T cells (HIV-1): quantitatively inhibit the release
- EC50 (HSV-2; Human alphaherpesvirus 2, Vero cells, MOI 0.1, 24 h, read-out: EC50, inhibition of HSV-2 release): 140 µM

- Tm (melting temperature) shift of Tsg101-UEV [1]: did not cause a detectable thermal shift
SMILES: COc1ccc2nc([S+]([O-])Cc3c(C)c(OC)c(C)c[n+]3[O-])[nH]c2c1 (stereo not shown) [omeprazole-N-oxide]
- Anti-HSV-2 activity (release from Vero cells), in words (HSV-2): inactive
